Patent publication US5096907A, “Antibiotic LL-E19085” (American Cyanamid Company, priority 1991, dated 1992)
≈ marks a conversion by molar mass, not a printed value. Where two headings read alike, the source gives them in different places.

How the values were obtained:
Assay in all cases: In vitro antibacterial activity, agar dilution
Type in all cases: cell-based
Streptococcus faecalis = conditions: Enterococcus faecalis, Mueller-Hinton agar, read-out: Minimal Inhibitory Concentration
Experimental: (§1) The in vitro antibacterial effects of antibiotics LL-E19085α, LL-E19085β, LL-E19085γ, LL-E19085.zeta. and LL-E19085.eta. were determined by standard agar dilution methods against clinical isolates obtained from medical centers representing various geographical areas in the United States. The inoculum of each culture was approximately 1 to 5×10^4 colony forming units applied with a Steers multiple inocula replicator to plates containing the antibiotic in Mueller-Hinton agar. The agar was supplemented with about 5% sheep blood where required for the growth of the organism.

Enterococcus Grp D = conditions: strain WRVA 88-33, Mueller-Hinton agar, read-out: Minimal Inhibitory Concentration
Experimental: as §1

Streptococcus pneumoniae = conditions: read-out: Minimal Inhibitory Concentration
Experimental: as §1

Escherichia coli = test system: Escherichia coli
Experimental: as §1

Klebsiella pneumoniae = conditions: strain NEMC 87-271, Mueller-Hinton agar, read-out: Minimal Inhibitory Concentration
Experimental: as §1

Enterococcus = conditions: strain CHBM 88-60, Mueller-Hinton agar, read-out: Minimal Inhibitory Concentration
Experimental: as §1

[1] = test system: Streptococcus a-hemolyticus; conditions: strain AMCH 88-84, Mueller-Hinton agar, read-out: Minimal Inhibitory Concentration
Experimental: as §1

Staphylococcus aureus = conditions: read-out: Minimal Inhibitory Concentration
Experimental: as §1

[2] = test system: Streptococcus b-hemolyticus; conditions: strain AMCH 88-86, Mueller-Hinton agar, read-out: Minimal Inhibitory Concentration
Experimental: as §1

Bacteroides cereus = conditions: read-out: Minimal Inhibitory Concentration
Experimental: as §1

[3] = test system: Staphylococcus hemolyticus; conditions: read-out: Minimal Inhibitory Concentration
Experimental: as §1

[4] = strain CHBB 88-75, Mueller-Hinton agar
[5] = strain CHBM 88-70, Mueller-Hinton agar
[6] = strain TEX 85-2, Mueller-Hinton agar
[7] = ATCC25922, strain ATCC 25922, Mueller-Hinton agar, read-out: Minimal Inhibitory Concentration
[8] = ATCC35218, strain ATCC 35218, Mueller-Hinton agar, read-out: Minimal Inhibitory Concentration
[9] = read-out: Minimal Inhibitory Concentration, strain D21, Mueller-Hinton agar
[10] = strain D22, Mueller-Hinton agar, read-out: Minimal Inhibitory Concentration
[11] = ATCC25923, strain ATCC 25923, Mueller-Hinton agar
[12] = ATCC29213, strain ATCC 29213, Mueller-Hinton agar
[13] = strain CMC 83-131, Mueller-Hinton agar
[14] = strain IVES 542, Mueller-Hinton agar
[15] = strain K82-26, Mueller-Hinton agar
[16] = strain NEMC 87-69, Mueller-Hinton agar
[17] = strain ROSE (MP), Mueller-Hinton agar
[18] = strain VGH 84-47, Mueller-Hinton agar
[19] = strain AVAH 88-1, Mueller-Hinton agar
[20] = strain AVAH 88-3, Mueller-Hinton agar

COc1cc2oc3c(c(=O)c2cc1OC)C(=O)c1c(ccc2cc4c(c(O)c12)C(=O)N1C(C)(C4)OC(=O)C1(C)CO)C3=O (stereo not drawn) [LL-E19085.eta.]
MIC (Streptococcus faecalis; strain ARUM 87-41): ≤ 0.015 µg/mL | MIC (Streptococcus faecalis; strain CMC 83-120): ≤ 0.015 µg/mL | MIC (Streptococcus faecalis; strain VCH 84-69): ≤ 0.015 µg/mL | MIC (Streptococcus faecalis; strain VCI 85-30): ≤ 0.015 µg/mL | MIC (Enterococcus Grp D): ≤ 0.015 µg/mL | MIC (Streptococcus pneumoniae; [4]): ≤ 0.015 µg/mL | MIC (Streptococcus pneumoniae; [5]): ≤ 0.015 µg/mL | MIC (Streptococcus pneumoniae; [6]): ≤ 0.015 µg/mL | MIC (Escherichia coli; [7]): > 32 µg/mL | MIC (Escherichia coli; [8]): > 32 µg/mL | MIC (Escherichia coli; [9]): ≥ 32 µg/mL | MIC (Escherichia coli; [10]): 2 µg/mL (≈ 3.42 µM) | MIC (Klebsiella pneumoniae): ≥ 32 µg/mL | MIC (Enterococcus): ≤ 0.015 µg/mL | MIC [1]: ≤ 0.015 µg/mL | MIC (Staphylococcus aureus; [11]): ≤ 0.015 µg/mL | MIC (Staphylococcus aureus; [12]): ≤ 0.015 µg/mL | MIC (Staphylococcus aureus; [13]): 0.12 µg/mL (≈ 0.205 µM) | MIC (Staphylococcus aureus; [14]): ≤ 0.015 µg/mL | MIC (Staphylococcus aureus; [15]): ≤ 0.015 µg/mL | MIC (Staphylococcus aureus; [16]): ≤ 0.015 µg/mL | MIC (Staphylococcus aureus; [17]): ≤ 0.015 µg/mL | MIC (Staphylococcus aureus; [18]): ≤ 0.015 µg/mL | MIC [2]: ≤ 0.015 µg/mL | MIC (Bacteroides cereus): ≤ 0.015 µg/mL | MIC [3, 19]: ≤ 0.015 µg/mL | MIC [3, 20]: ≤ 0.015 µg/mL

COc1cc2oc3c(c(=O)c2cc1OC)C(=O)c1c(ccc2cc4c(c(O)c12)C(=O)N1C(C)(C4)OC(=O)C1(C)COC(=O)C(C)C)C3=O (stereo not drawn) [LL-E19085β]
MIC (Streptococcus faecalis; strain ARUM 87-41): 2 µg/mL (≈ 3.05 µM) | MIC (Streptococcus faecalis; strain CMC 83-120): 2 µg/mL (≈ 3.05 µM) | MIC (Streptococcus faecalis; strain VCH 84-69): 2 µg/mL (≈ 3.05 µM) | MIC (Streptococcus faecalis; strain VCI 85-30): 2 µg/mL (≈ 3.05 µM) | MIC (Enterococcus Grp D): 2 µg/mL (≈ 3.05 µM) | MIC (Streptococcus pneumoniae; [4]): 0.12 µg/mL (≈ 0.183 µM) | MIC (Streptococcus pneumoniae; [5]): 0.25 µg/mL (≈ 0.381 µM) | MIC (Streptococcus pneumoniae; [6]): 0.12 µg/mL (≈ 0.183 µM) | MIC (Escherichia coli; [7]): > 64 µg/mL | MIC (Escherichia coli; [8]): > 64 µg/mL | MIC (Escherichia coli; [9]): ≥ 64 µg/mL | MIC (Escherichia coli; [10]): 8 µg/mL (≈ 12.2 µM) | MIC (Klebsiella pneumoniae): ≥ 64 µg/mL | MIC (Enterococcus): 2 µg/mL (≈ 3.05 µM) | MIC [1]: 0.5 µg/mL (≈ 0.763 µM) | MIC (Staphylococcus aureus; [11]): 0.5 µg/mL (≈ 0.763 µM) | MIC (Staphylococcus aureus; [12]): 2 µg/mL (≈ 3.05 µM) | MIC (Staphylococcus aureus; [13]): 4 µg/mL (≈ 6.1 µM) | MIC (Staphylococcus aureus; [14]): 4 µg/mL (≈ 6.1 µM) | MIC (Staphylococcus aureus; [15]): 2 µg/mL (≈ 3.05 µM) | MIC (Staphylococcus aureus; [16]): 4 µg/mL (≈ 6.1 µM) | MIC (Staphylococcus aureus; [17]): 2 µg/mL (≈ 3.05 µM) | MIC (Staphylococcus aureus; [18]): 4 µg/mL (≈ 6.1 µM) | MIC [2]: 2 µg/mL (≈ 3.05 µM) | MIC (Bacteroides cereus): 2 µg/mL (≈ 3.05 µM) | MIC [3, 19]: 2 µg/mL (≈ 3.05 µM) | MIC [3, 20]: 4 µg/mL (≈ 6.1 µM)

COc1cc2oc3c(c(=O)c2cc1OC)C(=O)c1c(ccc2cc4c(c(O)c12)C(=O)N1C(C)(C4)OC(=O)C1(C)COC(C)=O)C3=O (stereo not drawn) [LL-E19085γ]
MIC (Streptococcus faecalis; strain ARUM 87-41): 0.5 µg/mL (≈ 0.797 µM) | MIC (Streptococcus faecalis; strain CMC 83-120): 1 µg/mL (≈ 1.59 µM) | MIC (Streptococcus faecalis; strain VCH 84-69): 0.03 µg/mL (≈ 0.0478 µM) | MIC (Streptococcus faecalis; strain VCI 85-30): 0.06 µg/mL (≈ 0.0956 µM) | MIC (Enterococcus Grp D): 0.5 µg/mL (≈ 0.797 µM) | MIC (Streptococcus pneumoniae; [4]): ≤ 0.008 µg/mL | MIC (Streptococcus pneumoniae; [5]): ≤ 0.008 µg/mL | MIC (Streptococcus pneumoniae; [6]): ≤ 0.008 µg/mL | MIC (Escherichia coli; [7]): > 16 µg/mL | MIC (Escherichia coli; [8]): > 16 µg/mL | MIC (Escherichia coli; [9]): ≥ 16 µg/mL | MIC (Escherichia coli; [10]): 16 µg/mL (≈ 25.5 µM) | MIC (Klebsiella pneumoniae): ≥ 16 µg/mL | MIC (Enterococcus): 0.5 µg/mL (≈ 0.797 µM) | MIC [1]: ≤ 0.008 µg/mL | MIC (Staphylococcus aureus; [11]): ≥ 0.008 µg/mL | MIC (Staphylococcus aureus; [12]): 1 µg/mL (≈ 1.59 µM) | MIC (Staphylococcus aureus; [13]): 16 µg/mL (≈ 25.5 µM) | MIC (Staphylococcus aureus; [14]): 8 µg/mL (≈ 12.7 µM) | MIC (Staphylococcus aureus; [15]): ≤ 0.008 µg/mL | MIC (Staphylococcus aureus; [16]): 4 µg/mL (≈ 6.37 µM) | MIC (Staphylococcus aureus; [17]): 1 µg/mL (≈ 1.59 µM) | MIC (Staphylococcus aureus; [18]): 1 µg/mL (≈ 1.59 µM) | MIC [2]: ≤ 0.008 µg/mL | MIC (Bacteroides cereus): 0.5 µg/mL (≈ 0.797 µM) | MIC [3, 19]: 8 µg/mL (≈ 12.7 µM) | MIC [3, 20]: 0.5 µg/mL (≈ 0.797 µM)
